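Interpolation was linear, between the two tested concentrations surrounding the appropriate level; five concentrations were tested over 48 hours in 96-well plates. Abbreviation: GI50, concentration required for 50% inhibition of growth.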 Active and inactive are the calls of the source. No stated cut-off is given here; in the data, active = GI50 up to about 1.1 µM and inactive = higher.
Experiments:
Assay in all cases: NCI tumour cell line growth inhibition, 48 h
MOLT-4 = tested on: MOLT-4
LXFL 529 = tested on: LXFL 529
786-0 = tested on: 786-0
DMS-114 = tested on: DMS-114
SF-539 = tested on: SF-539
A498 = tested on: A498
HCT-15 = tested on: HCT-15
EKVX = tested on: EKVX
OVCAR-4 = tested on: OVCAR-4
Malme-3M = tested on: Malme-3M
SF-295 = tested on: SF-295
SK-MEL-2 = tested on: SK-MEL-2
U-251 = tested on: U-251
RXF 393 = tested on: RXF 393
OVCAR-3 = tested on: OVCAR-3
LOX IMVI = tested on: LOX IMVI
SK-MEL-5 = tested on: SK-MEL-5
SNB-78 = tested on: SNB-78
KM12 = tested on: KM12
HT-29 = tested on: HT-29
DMS-273 = tested on: DMS-273
SF-268 = tested on: SF-268
NCI-H460 = tested on: NCI-H460
HOP-18 = tested on: HOP-18
SK-OV-3 = tested on: SK-OV-3
NCI-H23 = tested on: NCI-H23
M14 = tested on: M14
TK-10 = tested on: TK-10
M19-MEL = tested on: M19-MEL
SNB-75 = tested on: SNB-75
HOP-62 = tested on: HOP-62
OVCAR-8 = tested on: OVCAR-8
A549 = tested on: A549
HOP-92 = tested on: HOP-92
SR = tested on: SR
IGROV-1 = tested on: IGROV-1
UO-31 = tested on: UO-31
K562 = tested on: K562
RXF 631 = tested on: RXF 631
SN12C = tested on: SN12C
UACC-62 = tested on: UACC-62
OVCAR-5 = tested on: OVCAR-5
HCT-116 = tested on: HCT-116
KM-20L2 = tested on: KM-20L2
SNB-19 = tested on: SNB-19
SW-620 = tested on: SW-620
RPMI-8226 = tested on: RPMI-8226
NCI-H226 = tested on: NCI-H226
CAKI-1 = tested on: CAKI-1
XF498 = tested on: XF498
UACC-257 = tested on: UACC-257
HL-60 = tested on: HL-60
COLO 205 = tested on: COLO 205
DLD-1 = tested on: DLD-1
CCRF-CEM = tested on: CCRF-CEM
HCC 2998 = tested on: HCC 2998
SK-MEL-28 = tested on: SK-MEL-28
NCI-H522 = tested on: NCI-H522
ACHN = tested on: ACHN

COc1cccc(N2C(=O)C3C4C=C5c6ccccc6N(c6ccccc6)C5(C3C2=O)[C@H]2C(=O)N(c3cccc(OC)c3)C(=O)[C@@H]42)c1 (stereo not given in full)
GI50 (MOLT-4): > 100 µM (inactive) | GI50 (LXFL 529): > 100 µM (inactive) | GI50 (786-0): > 100 µM (inactive) | GI50 (DMS-114): > 100 µM (inactive) | GI50 (SF-539): > 100 µM (inactive) | GI50 (A498): > 100 µM (inactive) | GI50 (HCT-15): > 100 µM | GI50 (EKVX): > 100 µM (inactive) | GI50 (OVCAR-4): > 100 µM (inactive) | GI50 (Malme-3M): > 100 µM (inactive) | GI50 (SF-295): > 100 µM (inactive) | GI50 (SK-MEL-2): > 100 µM (inactive) | GI50 (U-251): > 100 µM (inactive) | GI50 (RXF 393): > 100 µM (inactive) | GI50 (OVCAR-3): > 100 µM (inactive) | GI50 (LOX IMVI): > 100 µM (inactive) | GI50 (SK-MEL-5): > 100 µM (inactive) | GI50 (SNB-78): > 100 µM (inactive) | GI50 (KM12): > 100 µM (inactive) | GI50 (HT-29): > 100 µM (inactive) | GI50 (DMS-273): > 100 µM (inactive) | GI50 (SF-268): > 100 µM (inactive) | GI50 (NCI-H460): > 100 µM (inactive) | GI50 (HOP-18): > 100 µM (inactive) | GI50 (SK-OV-3): > 100 µM (inactive) | GI50 (NCI-H23): > 100 µM (inactive) | GI50 (M14): > 100 µM (inactive) | GI50 (TK-10): > 100 µM (inactive) | GI50 (M19-MEL): > 100 µM (inactive) | GI50 (SNB-75): > 100 µM (inactive) | GI50 (HOP-62): > 100 µM (inactive) | GI50 (OVCAR-8): > 100 µM (inactive) | GI50 (A549): > 100 µM (inactive) | GI50 (HOP-92): > 100 µM (inactive) | GI50 (SR): > 100 µM (inactive) | GI50 (IGROV-1): > 100 µM (inactive) | GI50 (UO-31): > 100 µM (inactive) | GI50 (K562): > 100 µM (inactive) | GI50 (RXF 631): > 100 µM (inactive) | GI50 (SN12C): > 100 µM (inactive) | GI50 (UACC-62): > 100 µM (inactive) | GI50 (OVCAR-5): > 100 µM (inactive) | GI50 (HCT-116): > 100 µM (inactive) | GI50 (KM-20L2): > 100 µM (inactive) | GI50 (SNB-19): > 100 µM (inactive) | GI50 (SW-620): > 100 µM (inactive) | GI50 (RPMI-8226): > 100 µM (inactive) | GI50 (NCI-H226): > 100 µM (inactive) | GI50 (CAKI-1): > 100 µM (inactive) | GI50 (XF498): > 100 µM (inactive) | GI50 (UACC-257): > 100 µM (inactive) | GI50 (HL-60): > 100 µM (inactive) | GI50 (COLO 205): > 100 µM (inactive) | GI50 (DLD-1): > 100 µM (inactive) | GI50 (CCRF-CEM): > 100 µM (inactive)

COc1ccccc1-n1c(NN)nc2ccc(Br)cc2c1=O
GI50 (MOLT-4): 26.2 µM (inactive) | GI50 (LXFL 529): 24.3 µM (inactive) | GI50 (786-0): 36.9 µM (inactive) | GI50 (DMS-114): 33.6 µM (inactive) | GI50 (SF-539): 27.9 µM (inactive) | GI50 (HCT-15): 35.6 µM | GI50 (HCC 2998): 41.7 µM (inactive) | GI50 (EKVX): 27.9 µM (inactive) | GI50 (OVCAR-4): > 100 µM (inactive) | GI50 (Malme-3M): 39.4 µM (inactive) | GI50 (SF-295): 34.5 µM (inactive) | GI50 (SK-MEL-2): 44.4 µM (inactive) | GI50 (U-251): 35.4 µM (inactive) | GI50 (RXF 393): 30.4 µM (inactive) | GI50 (OVCAR-3): 51.2 µM (inactive) | GI50 (LOX IMVI): 27.9 µM (inactive) | GI50 (SK-MEL-5): 19.3 µM (inactive) | GI50 (SNB-78): 47.6 µM (inactive) | GI50 (KM12): 38.6 µM (inactive) | GI50 (HT-29): 38.2 µM (inactive) | GI50 (DMS-273): 35.1 µM (inactive) | GI50 (SK-MEL-28): 40.3 µM (inactive) | GI50 (SF-268): 32.4 µM (inactive) | GI50 (NCI-H522): 16.9 µM (inactive) | GI50 (NCI-H460): 42.8 µM (inactive) | GI50 (HOP-18): 5.18 µM (inactive) | GI50 (SK-OV-3): 26.5 µM (inactive) | GI50 (NCI-H23): 28.1 µM (inactive) | GI50 (M14): 40.6 µM (inactive) | GI50 (TK-10): 28.4 µM (inactive) | GI50 (M19-MEL): 42.5 µM (inactive) | GI50 (SNB-75): 34.1 µM (inactive) | GI50 (ACHN): 36.5 µM (inactive) | GI50 (HOP-62): 28.8 µM (inactive) | GI50 (OVCAR-8): 34 µM (inactive) | GI50 (A549): 45.4 µM (inactive) | GI50 (SR): 24.9 µM (inactive) | GI50 (IGROV-1): 38.2 µM (inactive) | GI50 (UO-31): 35.1 µM (inactive) | GI50 (K562): 35.6 µM (inactive) | GI50 (RXF 631): 45.3 µM (inactive) | GI50 (SN12C): 57.9 µM (inactive) | GI50 (UACC-62): 36.6 µM (inactive) | GI50 (OVCAR-5): 18.2 µM (inactive) | GI50 (KM-20L2): 39.9 µM (inactive) | GI50 (SNB-19): 37 µM (inactive) | GI50 (SW-620): 53 µM (inactive) | GI50 (RPMI-8226): 41.2 µM (inactive) | GI50 (NCI-H226): 31 µM (inactive) | GI50 (CAKI-1): 48.1 µM (inactive) | GI50 (XF498): 28.5 µM (inactive) | GI50 (UACC-257): 24.4 µM (inactive) | GI50 (HL-60): 21.3 µM (inactive) | GI50 (COLO 205): 45.9 µM (inactive) | GI50 (DLD-1): 34.8 µM (inactive) | GI50 (CCRF-CEM): 23.7 µM (inactive)

COC(=O)C12OCC34C(CC5C(C)C6=CC(=O)OC6=CC5(C)C3C(O)C1O)OC(=O)C(OC(C)=O)C24 (stereo not given)
GI50 (MOLT-4): 14.8 µM (inactive) | GI50 (LXFL 529): 14.6 µM (inactive) | GI50 (786-0): 14.5 µM (inactive) | GI50 (DMS-114): 12.3 µM (inactive) | GI50 (SF-539): 15.2 µM (inactive) | GI50 (A498): 21.2 µM (inactive) | GI50 (HCT-15): 15.3 µM | GI50 (HCC 2998): 16.1 µM (inactive) | GI50 (EKVX): 16.7 µM (inactive) | GI50 (OVCAR-4): 18.1 µM (inactive) | GI50 (Malme-3M): 13 µM (inactive) | GI50 (SF-295): 23 µM (inactive) | GI50 (SK-MEL-2): 10.1 µM (inactive) | GI50 (U-251): 23.5 µM (inactive) | GI50 (RXF 393): 13.7 µM (inactive) | GI50 (OVCAR-3): 14.3 µM (inactive) | GI50 (LOX IMVI): 17.6 µM (inactive) | GI50 (SK-MEL-5): 15.3 µM (inactive) | GI50 (SNB-78): 11.6 µM (inactive) | GI50 (KM12): 16.4 µM (inactive) | GI50 (HT-29): 16.3 µM (inactive) | GI50 (DMS-273): 14.4 µM (inactive) | GI50 (SK-MEL-28): 15.5 µM (inactive) | GI50 (SF-268): 17 µM (inactive) | GI50 (NCI-H522): 8.91 µM (inactive) | GI50 (NCI-H460): 21.3 µM (inactive) | GI50 (HOP-18): 14.2 µM (inactive) | GI50 (SK-OV-3): 29 µM (inactive) | GI50 (NCI-H23): 15.1 µM (inactive) | GI50 (M14): 14.3 µM (inactive) | GI50 (TK-10): 17.4 µM (inactive) | GI50 (M19-MEL): 15.4 µM (inactive) | GI50 (SNB-75): 0.887 µM (active) | GI50 (ACHN): 15.7 µM (inactive) | GI50 (HOP-62): 25.8 µM (inactive) | GI50 (OVCAR-8): 16.3 µM (inactive) | GI50 (A549): 19.8 µM (inactive) | GI50 (HOP-92): 16.9 µM (inactive) | GI50 (SR): 18.3 µM (inactive) | GI50 (IGROV-1): 27.8 µM (inactive) | GI50 (UO-31): 24.4 µM (inactive) | GI50 (K562): 14.7 µM (inactive) | GI50 (RXF 631): 16.8 µM (inactive) | GI50 (SN12C): 17.1 µM (inactive) | GI50 (UACC-62): 12.9 µM (inactive) | GI50 (OVCAR-5): 23.1 µM (inactive) | GI50 (HCT-116): 13.7 µM (inactive) | GI50 (KM-20L2): 17 µM (inactive) | GI50 (SNB-19): 33.2 µM (inactive) | GI50 (SW-620): 9.4 µM (inactive) | GI50 (RPMI-8226): 12.1 µM (inactive) | GI50 (NCI-H226): 24.8 µM (inactive) | GI50 (CAKI-1): 9.91 µM (inactive) | GI50 (XF498): 12.2 µM (inactive) | GI50 (UACC-257): 14.1 µM (inactive) | GI50 (HL-60): 12.1 µM (inactive) | GI50 (COLO 205): 8.07 µM (inactive) | GI50 (DLD-1): 14.6 µM (inactive) | GI50 (CCRF-CEM): 6.37 µM (inactive)
